# Laboratory results from patent US20040180395A1, “Method for detecting calpain3 activity in a biological sample and peptides for implementing said method” (priority 2001, published 2004).
# Primed or numbered codes have the meaning given here. The star is where a group is joined. Mca = COc1ccc2c(CC(=O)*)cc(=O)oc2c1; Dnp′ = not defined here
# Key:
# Calpain 1 = molecular target: T1, Calpain 1 (Homo sapiens, UniProt P07384); assay: Assay of specificity of autolytic-site peptide cleavage (FRET fluorescence) by commercial calpain 1; format: biochemical; conditions: calpain 1, human erythrocytes; 10 mM CaCl2; peptide 1.9 μM; 37° C.; FIG. 2
# T1 construct: Calpain 1: human erythrocytes (Calbiochem); purchased Calbiochem; host or cells: human erythrocytes
# T1 sequence (P07384 1-714): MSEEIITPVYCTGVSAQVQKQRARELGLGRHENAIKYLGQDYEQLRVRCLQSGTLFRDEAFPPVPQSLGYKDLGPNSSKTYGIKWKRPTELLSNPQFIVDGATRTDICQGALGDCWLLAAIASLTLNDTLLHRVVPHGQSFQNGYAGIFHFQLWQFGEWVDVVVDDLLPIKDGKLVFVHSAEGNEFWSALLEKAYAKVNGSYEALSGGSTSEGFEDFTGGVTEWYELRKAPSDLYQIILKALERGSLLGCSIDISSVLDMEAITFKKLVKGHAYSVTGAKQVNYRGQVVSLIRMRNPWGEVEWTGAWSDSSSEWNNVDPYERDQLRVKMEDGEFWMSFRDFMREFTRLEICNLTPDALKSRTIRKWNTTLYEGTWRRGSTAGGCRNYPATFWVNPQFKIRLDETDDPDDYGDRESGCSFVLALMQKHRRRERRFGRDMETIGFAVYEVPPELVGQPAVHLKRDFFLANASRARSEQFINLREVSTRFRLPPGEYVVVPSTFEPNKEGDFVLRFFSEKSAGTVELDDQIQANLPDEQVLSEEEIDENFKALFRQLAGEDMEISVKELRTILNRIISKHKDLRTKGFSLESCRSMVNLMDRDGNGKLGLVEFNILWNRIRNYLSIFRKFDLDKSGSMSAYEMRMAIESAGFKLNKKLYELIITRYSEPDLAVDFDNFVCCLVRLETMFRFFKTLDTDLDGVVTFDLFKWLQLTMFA
# T1 sequence (P04632 1-268 partner): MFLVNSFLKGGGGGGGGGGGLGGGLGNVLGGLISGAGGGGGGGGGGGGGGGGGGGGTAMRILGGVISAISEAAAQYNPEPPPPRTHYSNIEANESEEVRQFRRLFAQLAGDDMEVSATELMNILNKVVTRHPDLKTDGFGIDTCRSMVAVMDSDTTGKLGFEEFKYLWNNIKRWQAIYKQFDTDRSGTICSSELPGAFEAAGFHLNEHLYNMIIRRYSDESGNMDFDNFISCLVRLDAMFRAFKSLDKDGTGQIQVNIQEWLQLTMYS
# Method: (§1) 1/ Fluorometer: SpectraMax Gemini XS Microplate fluoro-meter (molecular Devices).
# Calpain 1: human erythrocytes (Calbiochem)
# (§2) Final volume of 200 μl; calcium (CaCl2) 10 mM final concentration; fluorescent peptides 1.9 μM final concentration.
# (§3) The reaction is carried out at 37° C., either over one hour (with in this case measurement of fluorescence every 50 seconds) or over 6 hours (measurement every 2 minutes).
# (§4) The medium is agitated between each measurement. The wavelengths used for detecting the fluorescence of the peptides are:
# (§5) Excitation wavelengths of Mca: 325 nm.
# (§6) Emission wavelengths of […]: 392 nm.
# (§7) Resuspension buffer for commercial calpains: 100 mM NaCl, 5 mM EDTA, 50 Mm TrisHCl, 5 mM β-mercaptoethanol, 40% glycerol, pH=7.8. Storage at ambient temperature. Resuspension buffer for the fluorescent peptides: the peptides are resuspended at 1 mg/ml in 100% DMSO.
# (§8) Reaction buffer: 100 mM NaCl, 50 mM HEPES, 10 mM DTT, 1 mM EDTA, 10% glycerol, 0.1% CHAPS, 100 ng/μl BSA, pH=7.4, filtration. Storage at ambient temperature.
# (§9) Before verifying whether calpain 3 can cleave the peptides corresponding to its autolytic sites, a first assay consisted in verifying that these peptides (site 1, site 2, site 3) could not be cleaved by other proteases, in particular by ubiquitous calpains (see FIG. 2).
# Calpain 2 = molecular target: T2, Calpain 2 (Rattus norvegicus, UniProt Q07009); assay: Assay of specificity of autolytic-site peptide cleavage (FRET fluorescence) by commercial calpain 2; format: biochemical; conditions: calpain 2, rat recombinant; 10 mM CaCl2; peptide 1.9 μM; 37° C.; FIG. 2
# T2 construct: purchased Calbiochem; host or cells: E. coli
# T2 sequence (Q07009 1-700): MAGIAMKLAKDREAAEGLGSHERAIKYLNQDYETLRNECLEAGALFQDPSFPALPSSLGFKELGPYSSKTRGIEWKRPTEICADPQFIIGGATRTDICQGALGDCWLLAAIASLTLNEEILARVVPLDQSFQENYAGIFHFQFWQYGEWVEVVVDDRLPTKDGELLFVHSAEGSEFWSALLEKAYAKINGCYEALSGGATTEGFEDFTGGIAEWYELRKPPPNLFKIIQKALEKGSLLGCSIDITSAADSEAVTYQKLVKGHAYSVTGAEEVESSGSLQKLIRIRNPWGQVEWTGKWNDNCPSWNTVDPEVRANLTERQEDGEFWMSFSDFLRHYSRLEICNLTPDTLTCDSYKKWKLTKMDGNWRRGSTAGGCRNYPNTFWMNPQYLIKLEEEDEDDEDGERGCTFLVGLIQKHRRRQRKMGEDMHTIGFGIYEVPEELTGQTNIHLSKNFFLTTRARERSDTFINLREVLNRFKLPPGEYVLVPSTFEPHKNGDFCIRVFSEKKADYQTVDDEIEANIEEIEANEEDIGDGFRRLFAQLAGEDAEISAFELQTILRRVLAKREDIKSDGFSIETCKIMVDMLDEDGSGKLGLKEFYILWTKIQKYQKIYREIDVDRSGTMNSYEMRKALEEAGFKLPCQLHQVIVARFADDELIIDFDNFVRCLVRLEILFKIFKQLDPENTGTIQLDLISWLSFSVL
# T2 sequence (Q64537 87-270 partner limits assumed): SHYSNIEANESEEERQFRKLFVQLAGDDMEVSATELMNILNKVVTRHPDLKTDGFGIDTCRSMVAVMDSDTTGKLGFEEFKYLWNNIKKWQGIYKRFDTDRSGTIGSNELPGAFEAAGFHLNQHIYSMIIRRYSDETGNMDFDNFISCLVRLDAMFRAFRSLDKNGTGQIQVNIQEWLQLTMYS
# Method: as §1
# Calpain 2: rat, recombinant, E. coli (Calbiochem)
# as §2, §3, §4, §5, §6, §7, §8, §9
# calpain 3 [1] = assay: Cleavage of autolytic-site peptides by extracts of C2C12 cells transfected or not transfected with the plasmid encoding calpain 3; format: biochemical, murine; conditions: FIG. 3; for difference in cleavage activity between calpain 3-transfected and untransfected cells: C2C12 extracts, efficiency of transfection less than 10%; for activity of C2C12 extracts on the peptide (fluorescence): transfected or untransfected C2C12 extracts
# Method: as §2, §3, §5, §6, §8
# Cell Lines Used: C2C12: murine myoblasts;
# Medium used for C2C12: DMEM+10% FCS
# The desired cells are trypsinized and then the wells are seeded in such a way that the cells are at 50-80% confluency the following day.
# Allow the cells to grow at 37° C./7% CO2.
# (§10) Principle: The animal cells, which may or may not be transfected, are lysed for the purpose of preparing protein extracts the properties of which may be studied.
# (§11) The culture medium is removed from the wells and the wells are washed with PBS (phosphate buffered Dulbecco solution (without calcium, or magnesium, or sodium bicarbonate)—Gibco BRL).
# (§12) The cells are harvested and centrifuged at 500 g for 10 min at 4° C.
# (§13) The supernatant is removed and the cells are taken up in the lysis buffer (50 mM HEPES, 1 mM DTT, 0.1 mM EDTA, 0.1% CHAPS, pH=7.4) in a proportion of 700 μl of lysis buffer per well.
# (§14) The buffer is allowed to act at 4° C. for 5 minutes. Centrifugation is carried out at 10 000 g/10 minutes/4° C.
# (§15) The supernatant is recovered and stored at −20° C.
# It is known that calpain 3 has greater stability in muscle cells due to the presence of titin. For the purpose of proving that calpain 3 could cleave its own autolytic sites, it was therefore overexpressed in C2C12 cells by transfecting these cells with a plasmid encoding calpain 3. A control transfection with pECFP was carried out at the same time as the transfection with the plasmid encoding calpain 3. The efficiency of transfection on the C2C12s is less than 10%. The proteins were then extracted and their activity was assayed on the autolytic sites (FIG. 3).
# calpain 3 [2] = assay: Cleavage of autolytic-site peptides by extracts of normal (+/+) or calpain 3-deficient (−/−) mouse myoblasts; format: biochemical; conditions: myoblast extracts; for cleavage activity on the peptide / difference in cleavage activity between +/+ and −/− cells: reaction over 1 h, FIG. 4; for cleavage activity, +/+ versus −/− cell extracts: reaction over 6 h, FIG. 6
# Method: as §2, §3, §5, §6, §8, §10, §11, §12, §13, §14, §15
# The system is then assayed on extracts of cell cultures deficient or not deficient in calpain 3. To do this, mice deficient for the calpain 3 gene, for which myogenic cell cultures have been derived [Richard, 2000], are used. Extracts of cultures of calpain 3-deficient muscle cells (−/−cells) can therefore be compared with extracts of cultures of normal muscle cells (+/+cells). Initially, the assay was carried out on undifferentiated cells (myoblasts) (FIG. 4).
# calpain 3 [3] = assay: Cleavage of autolytic-site peptides by extracts of normal (+/+) or calpain 3-deficient (−/−) mouse quadriceps; format: biochemical; conditions: quadriceps lysates, over 6 hours; FIG. 7
# Method: as §2, §3, §5, §6, §8
# Principle: The muscles are ground for the purpose of preparing protein extracts the properties of which may then be studied.
# Material: Quadriceps of normal mice and of calpain 3-deficient mice.
# The muscles are ground in liquid nitrogen. The ground material is resuspended in the lysis buffer (cf. composition in the cell lysis protocol above) in a proportion of 19 μl of lysis buffer per milligram of ground tissue.
# The buffer is allowed to act for 10 minutes in ice. Centrifugation is carried out at 10 000 g for 10 minutes at 4° C.
# as §15
# Activity assays were also carried out on lysates of muscles from mice deficient or not deficient in calpain 3. The assays were carried out using quadriceps lysates (FIG. 7).
# calpain 3 [4] = assay: Cleavage of autolytic site 3 peptide by extracts of normal (+/+) or calpain 3-deficient (−/−) mouse myotubes; format: biochemical; conditions: myotube extracts; FIG. 5
# Method: as §2, §3, §5, §6, §8, §10, §11, §12, §13, §14, §15
# Specifically, calpain 3 is theoretically expressed more in myotubes than in myoblasts.
Substance,cleavage activity on the peptide (fluorescence over time vs peptide without enzyme) (Calpain 1),cleavage activity on the peptide (fluorescence over time vs peptide without enzyme) (Calpain 2),difference in cleavage activity between calpain 3-transfected and untransfected cells (calpain 3 [1]),activity of C2C12 extracts on the peptide (fluorescence) (calpain 3 [1]),cleavage activity on the peptide (calpain 3 [2]),"cleavage activity, +/+ versus −/− cell extracts (calpain 3 [2])","activity of cleavage, +/+ versus −/− tissue extracts (calpain 3 [3])",difference in cleavage activity between +/+ and −/− cells (calpain 3 [2]),"cleavage activity, −/− versus +/+ cell extracts (calpain 3 [4])"
Mca-NMDNISLL-Dnp [site 2],no cleavage activity,no cleavage activity,no difference can be detected,slight increase in fluorescence,No cleavage activity could be detected,greater in extracts of +/+cells,by the +/+ tissue extracts is greater than that of the −/−tissue extracts,–,–
"Mca-NMTYGTS-Dnp (Mca-NMTYGTS-{Dnp′}) [site 1, fluorescent FRET peptide of calpain 3 autolytic site 1, Mca donor and Dnp acceptor]",no cleavage activity,no cleavage activity,no difference can be detected,slight increase in fluorescence,low cleavage activity,greater in extracts of +/+cells,by the +/+ tissue extracts is greater than that of the −/−tissue extracts,very small,–
"Mca-PVQYETR-Dnp (Mca-PVQYETR-{Dnp′}) [site 3, fluorescent FRET peptide of calpain 3 autolytic site 3, Mca donor and Dnp acceptor]",no cleavage activity,no cleavage activity,greater in the transfected cells,–,Cleavage activity is detected,greater in extracts of −/−cells than in extracts of +/+cells,by the −/−tissue extracts is greater than that of the +/+tissue extracts,no difference in activity is visible,in the extracts of −/−cells is greater than in the extracts of +/+cells
